The results in this text go back to PMC10935334, “Chemotherapeutic Activities of New η^6-p-Cymene Ruthenium(II) and Osmium(II) Complexes with Chelating SS and Tridentate SNS Ligands” (Molecules, 2024).

By IC50 is commonly meant the concentration that inhibits the measured activity by half. Lower therefore signals greater potency. What is called melting point is the temperature, or range, at which the solid turns liquid.

The test system of series [1] is cervical carcinoma (HeLa) cell line. In words: MTT cell viability (cytotoxicity) assay in HeLa cells. Format: cell-based, human. From the text:
The cytotoxicity of the arene-Ru and arene-Os complexes was investigated against HeLa and Hek293 cells. The former cell is a cervical cancer line, while the latter is a non-tumor kidney cell line used to examine tumor selectivity. […] Due to their relative inertness and sufficient stability under physiological conditions, osmium complexes are considered exciting alternatives to ruthenium-based anti-cancer agents.
Phosphate-buffered saline tablets (PBS), 3-(4,5-dimethylthiazol-2-yl)-2.5-diphenyltetrazolium bromide (MTT), and DMSO were obtained from Merck (Darmstadt, Germany). The human embryonic kidney (HEK293) and cervical carcinoma (HeLa) cell lines were sourced from the American Type Culture Collection (ATCC) (Manassas, VA, USA). […]
(§1) The cytotoxicity of the compounds was examined in the HeLa and HEK293 cells using the MTT assay. […] Absorbance measurements were then taken at 570 nm using a Mindray MR-96A microplate reader (Vacutec, Hamburg, Germany).

Series [2] relates to human embryonic kidney (HEK293) cell line. In words: MTT cell viability (cytotoxicity) assay in HEK293 cells. Format: cell-based. The note with it: 48 h incubation, non-tumor HEK293 cells, concentration needed to cause 50% net cell mortality.
Description: The cytotoxicity of the arene-Ru and arene-Os complexes was investigated against HeLa and Hek293 cells. The former cell is a cervical cancer line, while the latter is a non-tumor kidney cell line used to examine tumor selectivity. […] These findings imply that the higher stability of the chelating (SS) and the pincer (SNS) ligand architectures in the complexes improve the biological (anti-proliferative) activity by rendering ligand dissociation less likely to occur under physiological conditions. The pincer (SNS) osmium complexes were more cytotoxic than their ruthenium analogues. […] These allow for more efficient interactions with biological target molecules. Osmium typically forms coordinative bonds with more inert bonds than in the analogous lighter homolog, ruthenium. Due to their relative inertness and sufficient stability under physiological conditions, osmium complexes are considered exciting alternatives to ruthenium-based anti-cancer agents. However, there was no apparent general pattern in the reactivity of the two metal centers and the isostructural ligand. […]
as §1

Turning to `O=c1[nH]cc(F)c(=O)[nH]1` [5-Fluorouracil, reference compound], the “Selectivity between tumor cells (HeLa) and normal cells (Hek293)” value in series [1] (HeLa vs Hek293, MTT assay) is given as “selective toward the tumor cells”. Besides, the IC50 in series [1] (Homo sapiens, MTT, 48 h incubation, HeLa cervical cancer cells, concentration needed to cause 50% net cell mortality) was 87 ± 15 µM; in series [2], 180 ± 20 µM.

In turn, `Cn1ccn(Cc2cccc(Cn3ccn(C)c3=S)n2)c1=S` had a melting point of 190 to 193 °C.

On to `Cn1ccn(CCn2ccn(C)c2=S)c1=S`, for which the melting point lay in the range of 195 to 197 °C.

The molecule `CCn1ccn(CCn2ccn(CC)c2=S)c1=S` registered a melting point of 131 to 133 °C.

With `CCn1ccn(Cn2ccn(CC)c2=S)c1=S`, the melting point lay within 175 to 177 °C.

The molecule `Cn1ccn(-c2cccc(-n3ccn(C)c3=S)n2)c1=S` showed a melting point of 270 to 273 °C.

With `Cn1ccn(Cn2ccn(C)c2=S)c1=S`, the melting point lay in the range of 194 to 197 °C.

As for `CCCn1ccn(CCn2ccn(CCC)c2=S)c1=S`, the melting point lay within 91 to 92 °C.

Take `CC(C)n1ccn(-c2cccc(-n3ccn(C(C)C)c3=S)n2)c1=S`: the melting point lay within 189 to 190 °C.
